From patent US9708336B2, “Metallo-beta-lactamase inhibitors” (priority 2014, dated 2017)
pIC50: −log10 of the molar value. Like-named read-outs stand apart in the source and are kept apart here.

How the values were obtained:
[1] = biological target: VIM-1 (Pseudomonas aeruginosa (strain ATCC 15692 / DSM 22644 / CIP 104116 / JCM 14847 / LMG 12228 / 1C / PRS 101 / PAO1), UniProt A0A0F7KYQ8); assay: Enzyme activity: determination of IC50, fluorescence assay with CCF2-FA substrate (VIM-1); type: biochemical
[2] = test system: Klebsiella pneumoniae expressing VIM-1 (IHMA599644); assay: Antibiotic potentiation activity: synergistic concentration (MITC95) with imipenem, OD600 growth; type: cell-based; details: for Klebsiella pneumoniae expressing VIM-1 (IHMA 599644) MITC95: concentration giving 95% inhibition of bacterial growth; for Klebsiella pneumoniae MITC95: Klebsiella pneumoniae expressing VIM-1 (IHMA599644), 95% growth inhibition
Outline: (§1)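 Growth after 22–24 h at 35 °C is measured spectrophotometrically for bacteria incubated with compound plus imipenem (4 μg/ml in-well, or 1 μg/ml). Cells come from overnight agar colonies resuspended in saline and diluted 1:100 in 1.1× CAMHB.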

[3] = test system: Escherichia coli expressing NDM-1 (CLB30005); assay: as above; type: cell-based; details: for Escherichia coli expressing NDM-1 (CLB 30005) MITC95: concentration giving 95% inhibition of bacterial growth; for Escherichia coli MITC95: Escherichia coli expressing NDM-1 (CLB30005), 95% growth inhibition
Outline: as §1

[4] = test system: Serratia marcescens expressing IMP-1 (CL5741); assay: as above; type: cell-based; details: for Serratia marcescens expressing IMP-1 (CL5741) MITC95: concentration giving 95% inhibition of bacterial growth; for Serratia marcescens MITC95: Serratia marcescens expressing IMP-1 (CL5741), 95% growth inhibition
Outline: as §1

[5] = biological target: IMP-1 (Serratia marcescens, UniProt P52699); assay: biochemical; type: biochemical; details: read-out: IMP-1 IC50
IMP-1, sequence (P52699 whole entry, looked up): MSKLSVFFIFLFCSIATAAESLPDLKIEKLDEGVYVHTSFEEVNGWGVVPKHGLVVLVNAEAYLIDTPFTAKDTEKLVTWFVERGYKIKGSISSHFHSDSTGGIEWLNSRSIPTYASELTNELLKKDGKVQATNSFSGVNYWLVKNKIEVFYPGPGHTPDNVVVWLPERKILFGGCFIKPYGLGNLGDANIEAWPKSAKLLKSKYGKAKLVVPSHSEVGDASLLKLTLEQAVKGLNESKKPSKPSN

[6] = biological target: NDM-1 (Klebsiella pneumoniae, UniProt C7C422); assay: biochemical; type: biochemical; details: read-out: NDM-1 IC50
NDM-1, sequence (C7C422 whole entry, looked up, species assumed): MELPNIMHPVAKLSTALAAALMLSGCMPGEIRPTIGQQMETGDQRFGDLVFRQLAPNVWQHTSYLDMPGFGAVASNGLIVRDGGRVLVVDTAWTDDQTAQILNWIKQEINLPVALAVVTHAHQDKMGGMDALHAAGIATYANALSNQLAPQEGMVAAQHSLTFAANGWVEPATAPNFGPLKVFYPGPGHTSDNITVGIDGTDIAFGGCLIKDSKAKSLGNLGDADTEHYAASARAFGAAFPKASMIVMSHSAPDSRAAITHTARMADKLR

[7] = fluorescence assay with CCF2-FA substrate, read-out: VIM-1 IC50
[8] = fluorescence assay with CCF2-FA substrate
[9] = VIM-1 enzyme, CCF2-FA fluorescence assay, read-out: VIM-1 IC50
[10] = IMP-1 enzyme, CCF2-FA fluorescence assay
[11] = NDM-1 enzyme, CCF2-FA fluorescence assay
[12] = VIM-1 IC50, VIM-1 enzyme, CCF2-FA fluorescence assay
[13] = VIM-1 IC50, fluorescence assay with CCF2-FA substrate

NS(=O)(=O)c1ccnc(-c2ccc(CO)cc2)c1-c1nnn[nH]1 [Example 188, 2-(4-(Hydroxymethyl)phenyl)-3-(1H-tetrazol-5-yl)pyridine-4-sulfonamide]
pIC50 [1, 7]: 5.38 | Klebsiella pneumoniae expressing VIM-1 (IHMA 599644) MITC95 [2]: >200 µM | Escherichia coli expressing NDM-1 (CLB 30005) MITC95 [3]: 2.344 µM | Serratia marcescens expressing IMP-1 (CL5741) MITC95 [4]: 37.5 µM | pIC50 [5, 8]: 6.11 | pIC50 [6, 8]: 7.44

NS(=O)(=O)c1cccc(-c2cscn2)c1-c1nn[nH]n1 [Example 45, 2-(2H-tetrazol-5-yl)-3-(1,3-thiazol-4-yl)benzenesulfonamide]
pIC50 [1, 7]: 6.30 | Klebsiella pneumoniae expressing VIM-1 (IHMA 599644) MITC95 [2]: 50 µM | Escherichia coli expressing NDM-1 (CLB 30005) MITC95 [3]: 0.7813 µM | Serratia marcescens expressing IMP-1 (CL5741) MITC95 [4]: 25 µM | pIC50 [5, 8]: 5.92 | pIC50 [6, 8]: 7.07

NC(=O)Cc1ccc(-c2cccc(S(N)(=O)=O)c2-c2nnn[nH]2)cc1 [Example 303, 2-(3′-sulfamoyl-2′-(1H-tetrazol-5-yl)-[1,1′-biphenyl]-4-yl)acetamide]
pIC50 [1, 9]: 7.35 | Klebsiella pneumoniae MITC95 [2]: 18.75 µM | Escherichia coli MITC95 [3]: 0.9766 µM | Serratia marcescens MITC95 [4]: 2.344 µM | pIC50 [5, 10]: 7.23 | pIC50 [6, 11]: 8.30

COc1nc2cc(Cl)c(-c3cccc(S(N)(=O)=O)c3-c3nn[nH]n3)cc2[nH]1 [Example 279, 3-(5-chloro-2-methoxy-1H-benzo[d]imidazol-6-yl)-2-(2H-tetrazol-5-yl)benzenesulfonamide]
pIC50 [1, 12]: 6.74 | Klebsiella pneumoniae MITC95 [2]: 75 µM | Escherichia coli MITC95 [3]: 0.5859 µM | Serratia marcescens MITC95 [4]: 25 µM | pIC50 [5, 10]: 5.66 | pIC50 [6, 11]: 7.49

CN(C)CCNC(=O)c1ccc(-c2cccc(S(N)(=O)=O)c2-c2nn[nH]n2)cc1 [Example 87, N-[2-(dimethylamino)ethyl]-3′-sulfamoyl-2′-(2H-tetrazol-5-yl)biphenyl-4-carboxamide]
pIC50 [1, 7]: 5.68 | Klebsiella pneumoniae expressing VIM-1 (IHMA 599644) MITC95 [2]: 200 µM | Escherichia coli expressing NDM-1 (CLB 30005) MITC95 [3]: 3.906 µM | Serratia marcescens expressing IMP-1 (CL5741) MITC95 [4]: 18.75 µM | pIC50 [5, 8]: 6.04 | pIC50 [6, 8]: 7.02

Cn1ccc(-c2cccc(S(N)(=O)=O)c2-c2nn[nH]n2)n1 [Example 97, 3-(1-methyl-1H-pyrazol-3-yl)-2-(2H-tetrazol-5-yl)benzenesulfonamide]
pIC50 [1, 7]: 5.79 | Klebsiella pneumoniae expressing VIM-1 (IHMA 599644) MITC95 [2]: 200 µM | Escherichia coli expressing NDM-1 (CLB 30005) MITC95 [3]: 0.5859 µM | Serratia marcescens expressing IMP-1 (CL5741) MITC95 [4]: 18.75 µM | pIC50 [5, 8]: 5.80 | pIC50 [6, 8]: 7.15

NS(=O)(=O)c1cccc(-c2ccc(C(=O)NC3CC3)cc2)c1-c1nn[nH]n1 [Example 11, N-cyclopropyl-3′-sulfamoyl-2′-(2H-tetrazol-5-yl)biphenyl-4-carboxamide]
pIC50 [1, 13]: 6.33 | Klebsiella pneumoniae expressing VIM-1 (IHMA 599644) MITC95 [2]: >200 µM | Escherichia coli expressing NDM-1 (CLB 30005) MITC95 [3]: 1.563 µM | Serratia marcescens expressing IMP-1 (CL5741) MITC95 [4]: 12.5 µM | pIC50 [5, 8]: 6.96 | pIC50 [6, 8]: 8.19

NS(=O)(=O)c1cccc(-c2ccc3c(c2)OCCO3)c1-c1nn[nH]n1 [Example 56, 3-(2,3-dihydro-1,4-benzodioxin-6-yl)-2-(2H-tetrazol-5-yl)benzenesulfonamide]
pIC50 [1, 7]: 7.36 | Klebsiella pneumoniae expressing VIM-1 (IHMA 599644) MITC95 [2]: 200 µM | Escherichia coli expressing NDM-1 (CLB 30005) MITC95 [3]: 2.344 µM | Serratia marcescens expressing IMP-1 (CL5741) MITC95 [4]: 14.06 µM | pIC50 [5, 8]: 7.88 | pIC50 [6, 8]: 8.74

Cc1ccc(-c2cc(-c3ccc(O)nc3)cc(S(N)(=O)=O)c2-c2nn[nH]n2)cc1 [Example 292, 5-(6-hydroxypyridin-3-yl)-4′-methyl-2-(2H-tetrazol-5-yl)-[1,1′-biphenyl]-3-sulfonamide]
pIC50 [1, 9]: 6.72 | Klebsiella pneumoniae MITC95 [2]: >200 µM | Escherichia coli MITC95 [3]: 3.516 µM | Serratia marcescens MITC95 [4]: 18.75 µM | pIC50 [5, 10]: 6.38 | pIC50 [6, 11]: 8.44

NS(=O)(=O)c1nccc(N2CCC3(CCNCC3)CC2)c1-c1nn[nH]n1 [Example 245, 4-(3,9-diazaspiro[5.5]undecan-3-yl)-3-(2H-tetrazol-5-yl)pyridine-2-sulfonamide]
pIC50 [1, 9]: 6.34 | Klebsiella pneumoniae MITC95 [2]: 12.5 µM | Escherichia coli MITC95 [3]: 0.3906 µM | Serratia marcescens MITC95 [4]: 50 µM | pIC50 [5, 10]: 5.01 | pIC50 [6, 11]: 6.58

NS(=O)(=O)c1nccc(-c2ccc(C3CCNC3)cc2)c1-c1nnn[nH]1 (stereo not drawn) [Example 198, 4-(4-(pyrrolidin-3-yl)phenyl)-3-(1H-tetrazol-5-yl)pyridine-2-sulfonamide]
pIC50 [1, 7]: 7.00 | Klebsiella pneumoniae expressing VIM-1 (IHMA 599644) MITC95 [2]: 2.344 µM | Escherichia coli expressing NDM-1 (CLB 30005) MITC95 [3]: 0.3906 µM | Serratia marcescens expressing IMP-1 (CL5741) MITC95 [4]: 3.125 µM | pIC50 [5, 8]: 5.93 | pIC50 [6, 8]: 7.17

NS(=O)(=O)c1cccc(-c2cccc(-n3nccn3)c2)c1-c1nn[nH]n1 [Example 70, 2-(2H-tetrazol-5-yl)-3′-(2H-1,2,3-triazol-2-yl)biphenyl-3-sulfonamide]
pIC50 [1, 7]: 7.54 | Klebsiella pneumoniae expressing VIM-1 (IHMA 599644) MITC95 [2]: 150 µM | Escherichia coli expressing NDM-1 (CLB 30005) MITC95 [3]: 1.563 µM | Serratia marcescens expressing IMP-1 (CL5741) MITC95 [4]: 18.75 µM | pIC50 [5, 8]: 6.98 | pIC50 [6, 8]: 8.70

Cn1nnc2ccc(-c3cccc(S(N)(=O)=O)c3-c3nn[nH]n3)cc21 [Example 67, 3-(1-methyl-1H-benzotriazol-6-yl)-2-(2H-tetrazol-5-yl)benzenesulfonamide]
pIC50 [1, 7]: 7.24 | Klebsiella pneumoniae expressing VIM-1 (IHMA 599644) MITC95 [2]: 62.5 µM | Escherichia coli expressing NDM-1 (CLB 30005) MITC95 [3]: 2.344 µM | Serratia marcescens expressing IMP-1 (CL5741) MITC95 [4]: 75 µM | pIC50 [5, 8]: 6.04 | pIC50 [6, 8]: 8.67

CN(C)S(=O)(=O)c1ccc(-c2cccc(S(N)(=O)=O)c2-c2nn[nH]n2)cc1 [Example 59, N~4~′,N~4~′-dimethyl-2-(2H-tetrazol-5-yl)biphenyl-3,4′-disulfonamide]
pIC50 [1, 7]: 7.02 | Klebsiella pneumoniae expressing VIM-1 (IHMA 599644) MITC95 [2]: 200 µM | Escherichia coli expressing NDM-1 (CLB 30005) MITC95 [3]: 2.344 µM | Serratia marcescens expressing IMP-1 (CL5741) MITC95 [4]: 6.25 µM | pIC50 [5, 8]: 7.44 | pIC50 [6, 8]: 8.36

NS(=O)(=O)c1cccc(-c2ccc(O)nc2)c1-c1nn[nH]n1 [Example 80, 3-(6-hydroxypyridin-3-yl)-2-(2H-tetrazol-5-yl)benzenesulfonamide]
pIC50 [1, 13]: 6.27 | Klebsiella pneumoniae expressing VIM-1 (IHMA 599644) MITC95 [2]: 25 µM | Escherichia coli expressing NDM-1 (CLB 30005) MITC95 [3]: 0.3906 µM | Serratia marcescens expressing IMP-1 (CL5741) MITC95 [4]: 50 µM | pIC50 [5, 8]: 5.62 | pIC50 [6, 8]: 7.09

NS(=O)(=O)c1cccc(-c2ccc(-c3nnn[nH]3)cc2)c1-c1nn[nH]n1 [Example 72, 4′-(1H-tetrazol-5-yl)-2-(2H-tetrazol-5-yl)biphenyl-3-sulfonamide]
pIC50 [1, 7]: 7.65 | Klebsiella pneumoniae expressing VIM-1 (IHMA 599644) MITC95 [2]: 25 µM | Escherichia coli expressing NDM-1 (CLB 30005) MITC95 [3]: 2.344 µM | Serratia marcescens expressing IMP-1 (CL5741) MITC95 [4]: 12.5 µM | pIC50 [5, 8]: 7.31 | pIC50 [6, 8]: 9.20

NS(=O)(=O)c1nccc(-c2ccncc2)c1-c1nnn[nH]1 [Example 194, 3-(1H-tetrazol-5-yl)-[4,4′-bipyridine]-2-sulfonamide]
pIC50 [1, 7]: 6.04 | Klebsiella pneumoniae expressing VIM-1 (IHMA 599644) MITC95 [2]: 62.5 µM | Escherichia coli expressing NDM-1 (CLB 30005) MITC95 [3]: 0.7813 µM | Serratia marcescens expressing IMP-1 (CL5741) MITC95 [4]: 75 µM | pIC50 [5, 8]: 5.64 | pIC50 [6, 8]: 6.61

NS(=O)(=O)c1cccc(C(=O)O)c1-c1nn[nH]n1 [Example 297, 3-Sulfamoyl-2-(2H-tetrazol-5-yl)benzoic acid]
pIC50 [1, 9]: 4.70 | Klebsiella pneumoniae MITC95 [2]: >200 µM | Escherichia coli MITC95 [3]: 12.5 µM | Serratia marcescens MITC95 [4]: >200 µM | pIC50 [5, 10]: 4.70 | pIC50 [6, 11]: 5.61

Cc1nc2ccccc2n1Cc1ccc(-c2cccc(S(N)(=O)=O)c2-c2nnn[nH]2)cc1 [Example 304, 4′-((2-methyl-1H-benzo[d]imidazol-1-yl)methyl)-2-(1H-tetrazol-5-yl)-[1,1′-biphenyl]-3-sulfonamide]
pIC50 [1, 9]: 6.99 | Klebsiella pneumoniae MITC95 [2]: >200 µM | Escherichia coli MITC95 [3]: 6.25 µM | Serratia marcescens MITC95 [4]: 7.031 µM | pIC50 [5, 10]: 7.30 | pIC50 [6, 11]: 7.53

NS(=O)(=O)c1cccc(-c2ccc(C(=O)N3CCOCC3)cc2)c1-c1nn[nH]n1 [Example 10, 4′-(morpholin-4-ylcarbonyl)-2-(2H-tetrazol-5-yl)biphenyl-3-sulfonamide]
pIC50 [1, 7]: 6.01 | Klebsiella pneumoniae expressing VIM-1 (IHMA 599644) MITC95 [2]: >200 µM | Escherichia coli expressing NDM-1 (CLB 30005) MITC95 [3]: 3.125 µM | Serratia marcescens expressing IMP-1 (CL5741) MITC95 [4]: 6.25 µM | pIC50 [5, 8]: 7.20 | pIC50 [6, 8]: 8.43

CN(C)Cc1ccc(-c2cccc(S(N)(=O)=O)c2-c2nnn[nH]2)cc1 [Example 327, 4′-((Dimethylamino)methyl)-2-(1H-tetrazol-5-yl)-[1,1′-biphenyl]-3-sulfonamide]
pIC50 [1, 12]: 6.67 | Klebsiella pneumoniae MITC95 [2]: 100 µM | Escherichia coli MITC95 [3]: 0.7813 µM | Serratia marcescens MITC95 [4]: 12.5 µM | pIC50 [5, 10]: 6.27 | pIC50 [6, 11]: 7.42
